Data reported in patent US20090203594A1, “Anticancer peptide” (priority 2004, published 2009).
Read-outs that look alike come from different tables or passages of the source. No end group written: not given here.

What was measured:
ICR 27 leukemic cells = assay: Reduction in ICR 27 leukemic cells by exogenous application of peptide (cell count); format: cell-based, human; conditions: for cell killing: ICR-27, peptide added exogenously without electroporation; for Cells/ml after 23 h: 1 h in serum-free medium then growth medium, average of duplicate counts
Protocol: At the maximum dose tested in this experiment, pDBD*4R9 caused over a 2-log loss of cells.
At t=0, growing cells were removed from medium, washed, and plated at 4.0×10^6 cells/ml in serum-free medium to which the peptide was added from a stock solution. Control peptide was GnRHR7 (Gonadotropin Releasing Hormone with a 7-arginine polymer added covalently). One hour later cells were diluted into growth medium. After 23 h, each culture was counted in duplicate. Average values are shown. Similar dose-related responses to pDBD*4R9 have been seen in 3 experiments.

[1] = system: cell clones from the CEM leukemic cell system; assay: pDBD*4 in glucocorticoid-susceptible and -resistant clones of the CEM leukemic cell system; format: cell-based, human
Protocol: pDBD*4 was tested in cell clones from the CEM leukemic cell system. Some of those clones are susceptible to apoptotic cell death evoked by steroids of the glucocorticoid class; others are not. Both types of clones were killed by electroporation of pDBD*4 into the cells, whereas exogenous application of pDBD*4 produced no effect.

[2] = system: CEM C7-14 lymphoblastic clonal cell line; assay: Electroporation of pDBD*4 into CEM C7-14 cells, cell death; format: cell-based, human; conditions: transfected by electroporation
Source text: (§1) Derivation of ICR-27 cells is found in Molecular & Cellular Biology (1981) 1:512-21 and of CEM1-15 and CEM7-14 in Genomics (2003) 81:175-97.

[3] = system: ICR-27 lymphoblastic clonal cell line; assay: Electroporation of pDBD*4 into ICR-27 cells, cell death; format: cell-based, human; conditions: transfected by electroporation
Protocol: FIG. 1 (A and B). Human leukemic ICR-27-4 cells were electroporated (500 μF, 300V) with 2 μg pDBD*4 peptide or without peptide (Control). Equal concentrations of cells were then plated and quantified for viable cell numbers over time.
as §1
Equal concentrations of cells were then plated.
In FIG. 1A, cell viability was evaluated after 4 hr using the WST-1 dye reduction assay (8,9). Quadruplicate wells of a 96 well plate each received 200 μl of cells plus 20 μl of WST-1 dye. The plate was then placed in a tissue culture incubator for 4 hours. Spectrophotometric analysis was carried out on a plate reader with Absorbance read at 450-595 nm. Absorbancies were corrected for the average of triplicate chemical blanks (200 μl growth medium plus 20 μl WST-1 dye). Data are presented as percent of control.
In FIG. 1B, cell concentrations were determined after 4 hr. and 24 hr. by hemocytometer counts of duplicate aliquots, with trypan blue dye added in the 24 hr samples to discriminate non-viable, but membrane-intact cells.

[4] = system: CEM 1-15 lymphoblastic clonal cell line; assay: Electroporation of pDBD*4 into CEM 1-15 cells, cell death; format: cell-based, human; conditions: transfected by electroporation
Source text: as §1

[5] = system: MCF-7 breast cancer cells; assay: Killing of MCF-7 breast cancer cells (qualitative); format: cell-based, human
SWB-39 glioma = assay: Killing of SWB-39 glioma cells; format: cell-based
[6] = system: non-malignant NIH-3T3 cells; assay: WST-1 dye reduction viability assay, NIH-3T3; format: cell-based
Protocol: (§2) A more quantitative assay was carried out using as an endpoint the reduction of a water-soluble tetrazolium dye (WST-1). This method has been employed to follow the effects of various chemotherapeutic agents on malignant cells (Hwang, W. S., Chen, L. M., Huang, S. H., Wang, C. C., Tseng, M. T. Prediction of chemotherapy response in human leukemia using in vitro chemosensitivity test. Leuk Res. 17:685-688, 1993; Pieters, R., Loonen, A. H., Huismans, D. R., Broekema, G. J., Dirven, M. W., Heyenbrok, M. W., Hahlen, K., Veerman, A. J. In vitro drug sensitivity of cells with children with leukemia using the MTT assay with approved culture conditions. Blood 76:2327-2336, 1990).
(§3) Viable cells can reduce the dye; dead cells cannot. The effects on pDBD*4R9 on MCF-7 breast cancer cells and non-malignant NIH-3T3 cells were compared (Table 2).
(§4) 20,000 cells were plated in triplicate in a 96 well plate. 24 hr later, cells were washed once and growth medium was replaced with serum free medium containing pDBD*4R9 (termed ‘Frag49’ in the table) or no peptide (Control) and placed in a tissue culture incubator at 37 deg. After 1 hr, serum-containing medium was added to each well and the plates were reincubated for 5 hr. 20 μl of WST-1 dye was then added to each well, and 4 hr later, Absorbance at 450-595 nm was determined spectrophotometrically. A chemical blank (avg. of 4 wells, medium plus dye only) was subtracted from each raw score.

CEM cell clone C1-15 = assay: Exogenous peptide on CEM clone C1-15; format: cell-based, human; conditions: CEM clone C1-15, peptide administered exogenously
Protocol: (§5) As shown below, pDBD*R9 was administered to CEM cell clones ICR-27, C7-14, and C1-15. Two of these clones are resistant to the synthetic glucocorticoid dexamethasone, commonly used in the treatment of acute lymphoblastic leukemia.

[7] = system: breast cancer GT-MCF-7 cells; assay: AlarmarBlue viability assay on GT-MCF-7 cells; format: cell-based, human; conditions: GT-MCF-7, four-hour treatment
Protocol: (§6) For each cell line, the protocol was the same for determining the effects of pDBD*4R9.
Cells were plated in equal numbers and washed free of growth medium. […]
In the experiment on MCF-7 cells, an equivalent assay (AlarmarBlue) was used.

[8] = system: human leukemic CEM C714 cells; assay: Exogenous peptide on CEM C7-14 leukemic cells (WST viability); format: cell-based
Protocol: as §5, §6
(§7) Cells were plated in equal numbers and washed free of growth medium.
(§8) The peptide pDBD*4R9 was then added to the cells for one hour, after which they were returned to growth medium.
(§9) At a suitable interval thereafter, they were assayed for viability by use of the WST assay (described above), which measures the ability of viable cells' mitochondria to metabolize and therefore change the color of a water soluble tetrazolium dye (WST). By measuring the absorbance of the color, one has a quantitative correlate of viability: More absorbance=more viable cells.

[9] = system: basal cell carcinoma cells; assay: Killing of basal cell carcinoma cells; format: cell-based; conditions: line of basal cell carcinoma cells
[10] = system: MCF-7 breast cancer cells; assay: WST-1 dye reduction viability assay, MCF-7; format: cell-based, human
Protocol: as §2, §3, §4

[11] = system: colon cancer line, CaCo-2; assay: WST viability assay, colon cancer line; format: cell-based
Protocol: as §6, §7, §8, §9

[12] = NIH-3T3, 1 h peptide, 5 h reincubation, 4 h dye, blank subtracted
[13] = MCF-7, 1 h peptide, 5 h reincubation, 4 h dye, blank subtracted

Substance: tyr-leu-cys-ala-gly-arg-asn-asp-cys-ile-ile-ala-ile-lys-phe-glu-glu-lys-thr-ala-gln-his-ala-ala-ile-glu-asn-val-phe-arg-leu-glu (YLCAGRNDCIIAIKFEEKTAQHAAIENVFRLE) [pDBD*4, 32-amino acid synthetic polypeptide, portion of the 89 aa peptide encoded by gene 398-465*]
- cell killing (ICR 27 leukemic cells): did not
- cell killing ([1]; electroporation into glucocorticoid-susceptible and non-susceptible CEM clones): killed
- effect on cells ([1]; exogenous application, CEM clones): no effect
- cell death [2]: causes cell death
- cell death [3]: causes cell death
- cell death [4]: causes cell death

Substance: RRRRRRRRRYLCAGRNDCIIAIKFEEKTAQHAAIENVFRLE (cysteines drawn unpaired) [pDBD*4R9]
- killing activity / cell death [5]: caused death
- killing activity / cell death ([5]; listed as pDBD*R9): Killing activity
- Cells/ml after 23 h (ICR 27 leukemic cells; 5 μM peptide): 1.8 × 10^5 Cells/ml
- Cells/ml after 23 h (ICR 27 leukemic cells; 10 μM peptide): 1.95 × 10^5 Cells/ml
- Cells/ml after 23 h (ICR 27 leukemic cells; 20 μM peptide): 0.5 × 10^5 Cells/ml
- cell loss / growth inhibition with increasing concentrations (ICR 27 leukemic cells; ICR27-4, increasing concentrations): caused cell loss in a dose-dependent manner
- loss of cells (ICR 27 leukemic cells; ICR27-4, maximum dose tested): > 2 log
- cell killing (ICR 27 leukemic cells): killed the cells in a dose dependent manner
- cell killing (ICR 27 leukemic cells; listed as pDBD*R9): killed in a dose-dependent manner
- killing activity / cell death (SWB-39 glioma): caused death
- killing activity / cell death (SWB-39 glioma; listed as pDBD*R9): Killing activity
- metabolism of the tetrazolium dye ([6]; NIH-3T3, dose of Table 2): not significantly altered
- WST-1 Absorbance, 450-595 nm, Well 1 [6, 12]: 0.199
- WST-1 Absorbance, 450-595 nm, Well 2 [6, 12]: 0.216
- WST-1 Absorbance, 450-595 nm, Well 3 [6, 12]: 0.196
- WST-1 Absorbance, 450-595 nm, Avg. ([6]; NIH-3T3, average of 3 wells): 0.204
- cell killing (CEM cell clone C1-15): killed in a dose-dependent manner
- anticancer effect (FIG. 2) [7]: significant anticancer effects
- anticancer effect (FIG. 3) ([8]; CEM C714 cells): significant anticancer effects
- cell killing ([8]; CEM clone C7-14, peptide administered exogenously): killed in a dose-dependent manner
- killing activity / cell death [9]: caused death
- killing activity / cell death ([9]; listed as pDBD*R9): Killing activity
- average reduction in ability to metabolize the tetrazolium dye ([10]; MCF-7, dose of Table 2): over 3 fold
- WST-1 Absorbance, 450-595 nm, Well 1 [10, 13]: 0.045
- WST-1 Absorbance, 450-595 nm, Well 2 [10, 13]: 0.087
- WST-1 Absorbance, 450-595 nm, Well 3 [10, 13]: 0.289
- WST-1 Absorbance, 450-595 nm, Avg. ([10]; MCF-7, average of 3 wells): 0.140
- Absorbance ([11]; Expt 1, 25 microM, duplicates, avg +/- range): 0.08 +/− 0.01
- Absorbance ([11]; Expt 1, 50 microM, duplicates, avg +/- range): 0.16 +/− 0.005
- Absorbance ([11]; Expt 2, 100 microM, triplicates, avg +/- 1 SD): 0.19 +/− 0.05
- estimated cell kill ([11]; colon cancer cells, single treatment, 25-100 microM): 50-75%
